Where a name gives a salt, the structure may show the parent alone. Read-outs that look alike come from different tables or passages of the source.
Legend:
Mtb strain H37Rv = settings: comparison with 61; cited from earlier work
CYP121A1 [1] = target: T1, CYP121A1 (Mycobacterium tuberculosis, UniProt P9WPP7); assay: biochemical; assay type: binding; settings: for Kd: UV-Vis titration, compounds screened at 300 μM, Type II Soret shift, 28 °C
T1 construct: made in house

CYP121A1 [2] = target: T1, CYP121A1; assay: X-ray crystallographic screening (crystal soaking); assay type: binding; settings: soaking experiments
Mtb H37Rv = assay: Antimycobacterial activity assay (resazurin colorimetric, whole-cell); assay type: cell-based, Mycobacterium tuberculosis; settings: for MIC90: Mycobacterium tuberculosis, H37RV; for Activity against Mtb: three growth media
Mtb CYP121A1 [3] = target: T2, Mtb CYP121A1 (Mycobacterium tuberculosis, UniProt P9WPP7); assay: biochemical; assay type: binding; settings: 25 °C, 50 μM CYP121A1, 10% DMSO-d6; read-out: Kd (ITC)
T2 construct: His6; made in house

CYP121A1 [4] = target: T1, CYP121A1; assay type: binding; settings: Kd for cYY over the cYY control
CYP121A1 [5] = target: T1, CYP121A1; assay type: biochemical; settings: 100 μM compound + 100 μM cYY
Mtb CYP121A1 [6] = target: T2, Mtb CYP121A1; assay: Differential scanning fluorimetry (DSF); assay type: binding; settings: read-out: ΔTm
[7] = 168 h, Mtb H37Rv, 7H9 with low BSA (0.05% albumin, ADN), one week, read-out: MIC90 7H9-Low BSA
[8] = 168 h, Mtb H37Rv, Middlebrook 7H9 with 10% ADC (BSA rich), one week, read-out: MIC90 c7H9
[9] = 336 h, Mtb H37Rv, Mycobacterial Minimal Medium with cholesterol, two weeks, read-out: MIC90 MMM-Ch
[10] = medium not specified or span over the three growth media tested, read-out: MIC90 against Mtb strain H37Rv

T1 sequence (P9WPP7 whole entry): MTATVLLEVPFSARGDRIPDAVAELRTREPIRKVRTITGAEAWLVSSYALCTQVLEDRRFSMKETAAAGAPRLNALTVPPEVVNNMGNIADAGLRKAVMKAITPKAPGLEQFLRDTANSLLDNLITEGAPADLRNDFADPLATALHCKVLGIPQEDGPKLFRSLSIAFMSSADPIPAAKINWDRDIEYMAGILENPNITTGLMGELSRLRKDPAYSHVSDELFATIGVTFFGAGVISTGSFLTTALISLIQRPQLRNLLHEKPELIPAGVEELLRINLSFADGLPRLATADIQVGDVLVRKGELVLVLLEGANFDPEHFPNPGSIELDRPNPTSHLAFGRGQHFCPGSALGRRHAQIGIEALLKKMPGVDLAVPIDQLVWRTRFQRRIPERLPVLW
T2 sequence (P9WPP7 whole entry): as above

Row | SMILES | MIC90 (Mtb H37Rv; [7]) [µM] | MIC90 (Mtb H37Rv; [8]) [µM] | MIC90 (Mtb H37Rv; [9]) [µM] | further results
1 | Clc1ccc(COC(Cn2ccnc2)c2ccc(Cl)cc2Cl)cc1 (centres unmarked) [econazole] | – | – | – | MIC90 of azole anti-fungal drugs (Mtb strain H37Rv): 8 µg/mL
2 | Fc1ccc2[nH]cc(CCc3ccncc3)c2c1 [Compound 41] | – | – | – | Kd (CYP121A1 [1]): 27.3 ± 4.8 µM
3 | Clc1ccc(COC(Cn2ccnc2)c2ccc(Cl)cc2Cl)c(Cl)c1 (centres unmarked) [miconazole] | – | – | – | MIC90 of azole anti-fungal drugs (Mtb strain H37Rv): 8 µg/mL
4 | c1ccc2c(CCc3ccnc(N4CCOCC4)n3)c[nH]c2c1 [Compound 14, 4-(4-(2-(1H-Indol-3-yl)ethyl)pyrimidin-2-yl)morpholine] | 25 | 25 | 12.5 | X-ray crystallographic screening result (CYP121A1 [2]): hits; MIC90 (Mtb H37Rv; [10]): 12.5 to 25 µM; Kd (Mtb CYP121A1 [3]): ~100 µM; Soret band shift (416.5 nm) (CYP121A1 [1]; UV-Vis screen): lack of shift; Fold increase (CYP121A1 [4]): 1.5; Inhibition of CYP121A1 / production of mycocyclosin (CYP121A1 [5]): markedly reduced the production of mycocyclosin
5 | Clc1ccccc1C(c1ccccc1)(c1ccccc1)n1ccnc1 [clotrimazole] | – | – | – | MIC90 of azole anti-fungal drugs (Mtb strain H37Rv): 11 µg/mL
6 | c1ccc2c(CCc3nc4c(c(N5CCOCC5)n3)CCNC4)c[nH]c2c1 [Compound 83, 4-(2-(2-(1H-Indol-3-yl)ethyl)-5,6,7,8-tetrahydropyrido[3,4-d]pyrimidin-4-yl)morpholine hydrochloride] | – | – | – | ΔTm at 1000 µM (Mtb CYP121A1 [6]): 1 °C
7 | COC1CN(c2nccc(CCc3c[nH]c4ccc(Br)cc34)n2)C1 [Compound 33, 5-Bromo-3-(2-(2-(3-methoxyazetidin-1-yl)pyrimidin-4-yl)ethyl)-1H-indole] | – | – | – | X-ray crystallographic screening result (CYP121A1 [2]): hits
8 | Brc1ccc2c(c1)N(c1nccc(CCc3c[nH]c4ccccc34)n1)CCO2 [Compound 63, 4-(4-(2-(1H-Indol-3-yl)ethyl)pyrimidin-2-yl)-6-bromo-3,4-dihydro-2H-benzo[b][1,4]oxazine] | 50 | 25 | 50 | Activity against Mtb (Mtb H37Rv): moderate inhibitors
9 | Clc1ccc2[nH]cc(CCc3ccncc3)c2c1 [Compound 8] | – | – | – | Kd (CYP121A1 [1]): 5.8 ± 0.7 µM
10 | Brc1ccc2[nH]cc(CCc3ccnc(N4CCCO4)n3)c2c1 [Compound 30, 2-(4-(2-(5-Bromo-1H-indol-3-yl)ethyl)pyrimidin-2-yl)isoxazolidine] | 200 | 200 | 100 | –
11 | FC(F)(F)Oc1ccc2[nH]cc(CCc3ccncc3)c2c1 [Compound 44, 3-(2-(Pyridin-4-yl)ethyl)-5-(trifluoromethoxy)-1H-indole] | – | – | – | Kd (CYP121A1 [1]): 12.7 ± 2.3 µM
12 | Oc1ccc2[nH]cc(CCc3ccnc(N4CCOCC4)n3)c2c1 [Compound 55, 3-(2-(2-Morpholinopyrimidin-4-yl)ethyl)-1H-indol-5-ol] | – | – | – | ΔTm at 1000 µM (Mtb CYP121A1 [6]): 0.5 °C
13 | c1ccc2c(CCc3ccncn3)c[nH]c2c1 [Compound 10] | – | – | – | X-ray crystallographic screening result (CYP121A1 [2]): hits; ΔTm at 1000 µM (Mtb CYP121A1 [6]): 3.5 °C
14 | Ic1ccc2[nH]cc(CCc3ccncc3)c2c1 [Compound 42, 5-Iodo-3-(2-(pyridin-4-yl)ethyl)-1H-indole] | – | – | – | Kd (CYP121A1 [1]): 3.2 ± 0.3 µM
15 | c1ccc2c(CCc3nc4c(c(N5CC6CCC(C5)O6)n3)CNC4)c[nH]c2c1 [Compound 82, 3-(2-(2-(1H-Indol-3-yl)ethyl)-6,7-dihydro-5H-pyrrolo[3,4-d]pyrimidin-4-yl)-8-oxa-3-azabicyclo[3.2.1]octane hydrochloride] | – | – | – | ΔTm at 1000 µM (Mtb CYP121A1 [6]): 2.4 °C
16 | Cn1cc(CCc2ccnc(N3CCOCC3)n2)c2ccccc21 [Compound 57, 4-(4-(2-(1-Methyl-1H-indol-3-yl)ethyl)pyrimidin-2-yl)morpholine] | 25 | 50 | 25 | Activity against Mtb (Mtb H37Rv): moderate inhibitors
17 | CC(=O)n1cc(CCc2ccnc(N3CCOCC3)n2)c2ccccc21 [Compound 64, 1-(3-(2-(2-Morpholinopyrimidin-4-yl)ethyl)-1H-indol-1-yl)ethan-1-one] | > 400 | > 400 | > 400 | Activity against Mtb (Mtb H37Rv): essentially lost all activity

Row | SMILES | MIC90 (Mtb H37Rv; [7]) [µM] | MIC90 (Mtb H37Rv; [8]) [µM] | MIC90 (Mtb H37Rv; [9]) [µM] | further results
18 | c1ccc2c(c1)OCCN2c1nccc(CCc2c[nH]c3ccccc23)n1 [Compound 61, 4-(4-(2-(1H-Indol-3-yl)ethyl)pyrimidin-2-yl)-3,4-dihydro-2H-benzo[b][1,4]oxazine] | 25 | 12.5 | 6.25 | MIC90 (Mtb H37Rv; converted from μM value, read-out: MIC90 against Mtb strain H37Rv): ~2.2 µg/mL; MIC90 (Mtb H37Rv; [10]): 6.25 µM; Activity against Mtb (Mtb H37Rv): moderate inhibitors; Inhibition of CYP121A1 / production of mycocyclosin (CYP121A1 [5]): markedly reduced the production of mycocyclosin
19 | COC1CN(c2nccc(CCc3c[nH]c4ccc(Cl)cc34)n2)C1 [Compound 32, 5-Chloro-3-(2-(2-(3-methoxyazetidin-1-yl)pyrimidin-4-yl)ethyl)-1H-indole] | 100 | 200 | 50 | MIC90 (Mtb H37Rv; [10]): 12.5 to 50 µM
20 | Nc1[nH]nc(-c2ccc(O)cc2)c1-c1ccc(O)cc1 [Compound 45, reference compound] | – | – | – | Kd (Mtb CYP121A1 [3]): 20 to 25 µM; ΔTm at 1000 µM (Mtb CYP121A1 [6]): 1 °C
21 | CN1CCN(c2nccc(CCc3c[nH]c4ccc(Br)cc34)n2)CC1 [Compound 23, 5-Bromo-3-(2-(2-(4-methylpiperazin-1-yl)pyrimidin-4-yl)ethyl)-1H-indole] | 25 | 100 | 12.5 | MIC90 (Mtb H37Rv; [10]): 12.5 to 50 µM
22 | FC(F)(F)Oc1ccc2[nH]cc(CCc3ccnc(N4CCOCC4)n3)c2c1 [Compound 53, 4-(4-(2-(5-(Trifluoromethoxy)-1H-indol-3-yl)ethyl)pyrimidin-2-yl)morpholine] | 25 | 25 | 50 | Activity against Mtb (Mtb H37Rv): moderate inhibitors
23 | c1ccc2c(CCc3ccnc(N4CCSCC4)n3)c[nH]c2c1 [Compound 15, 4-(4-(2-(1H-Indol-3-yl)ethyl)pyrimidin-2-yl)thiomorpholine] | 100 | 200 | 25 | MIC90 (Mtb H37Rv; [10]): 12.5 to 50 µM
24 | CO[C@H]1/C=C/O[C@@]2(C)Oc3c(C)c(O)c4c(O)c(c(/C=N/N5CCN(C)CC5)c(O)c4c3C2=O)NC(=O)/C(C)=C\C=C\[C@H](C)[C@H](O)[C@@H](C)[C@@H](O)[C@@H](C)[C@H](OC(C)=O)[C@@H]1C [Rifampicin, reference compound] | 0.013 | 0.023 | 0.013 | –
25 | c1ccc2c(CCc3ccnc(N4CC5CCC(C4)O5)n3)c[nH]c2c1 [Compound 58, 3-(4-(2-(1H-Indol-3-yl)ethyl)pyrimidin-2-yl)-8-oxa-3-azabicyclo[3.2.1]octane] | 50 | 200 | 25 | Activity against Mtb (Mtb H37Rv): active, but showed much reduced potency in BSA rich medium
26 | c1ccc2c(CCc3nc4c(c(N5CCOCC5)n3)CNC4)c[nH]c2c1 [Compound 81, 4-(2-(2-(1H-Indol-3-yl)ethyl)-6,7-dihydro-5H-pyrrolo[3,4-d]pyrimidin-4-yl)morpholine hydrochloride] | – | – | – | ΔTm at 1000 µM (Mtb CYP121A1 [6]): 3.5 °C
27 | FC(F)(F)Oc1ccc(-c2nccc(CCc3c[nH]c4ccccc34)n2)cc1 [Compound 34, 3-(2-(2-(4-(Trifluoromethoxy)phenyl)pyrimidin-4-yl)ethyl)-1H-indole] | 100 | 100 | 12.5 | MIC90 (Mtb H37Rv; [10]): 12.5 to 50 µM
28 | Fc1ccc2[nH]cc(CCc3ccnc(N4CCOCC4)n3)c2c1 [Compound 51, 4-(4-(2-(5-Fluoro-1H-indol-3-yl)ethyl)pyrimidin-2-yl)morpholine] | 50 | 25 | 25 | Activity against Mtb (Mtb H37Rv): moderate inhibitors
29 | c1ccc2c(CCc3ccncc3)c[nH]c2c1 [Compound 7] | – | – | – | X-ray crystallographic screening result (CYP121A1 [2]): hits; Kd (CYP121A1 [1]): 483 ± 76 µM
30 | Brc1ccc2[nH]cc(CCc3ccnc(N4CCOCC4)n3)c2c1 [Compound 21, 4-(4-(2-(5-Bromo-1H-indol-3-yl)ethyl)pyrimidin-2-yl)morpholine] | – | – | – | X-ray crystallographic screening result (CYP121A1 [2]): hits
31 | COC1CN(c2nccc(CCc3c[nH]c4ccccc34)n2)C1 [Compound 31, 3-(2-(2-(3-Methoxyazetidin-1-yl)pyrimidin-4-yl)ethyl)-1H-indole] | 25 | 50 | 25 | X-ray crystallographic screening result (CYP121A1 [2]): hits; Activity against Mtb (Mtb H37Rv): moderate inhibitors
32 | c1ccc2c(CCc3ccnc(N4CCCOCC4)n3)c[nH]c2c1 [Compound 60, 4-(4-(2-(1H-Indol-3-yl)ethyl)pyrimidin-2-yl)-1,4-oxazepane] | 50 | 25 | 25 | Activity against Mtb (Mtb H37Rv): moderate inhibitors
33 | COc1ccc2[nH]cc(CCc3ccncc3)c2c1 [Compound 43] | – | – | – | Kd (CYP121A1 [1]): 105 ± 10 µM
34 | Brc1ccc2[nH]cc(CCc3ccncc3)c2c1 [Compound 9] | – | – | – | Kd (CYP121A1 [1]): 3.8 ± 0.5 µM
